What was measured:
olfactory mucosa = assay: Electrical signal in the olfactory bulb on spraying the compound toward the olfactory mucosa, measured with implanted micro electrodes; type: in vivo; conditions: rat, sprayed with air for 5 minutes; FIG. 5 (a) vs (b)
From the text: A two-week-old rat was used as a test animal. The measuring electrode portion 10 shown in FIG. 4 was implanted into the rat by a surgical operation. In the measuring electrode portion 10, the length of the micro electrode 16a was 100 μm, and the interval between adjacent micro electrodes 16a in each electrode column 17 was 500 μm. Platinum was used as a conductive material for the needle-shaped conductive lead 16. Polyimide was used as the insulative film. […] In order to attach the measuring electrode portion 10 to the rat, Nembutal (barbiturate) was injected into the abdominal cavity of the rat in a quantity equal to […], so as to anesthetize the rat, and the anesthetized rat was fixed in the prone position. […] The response induced in the olfactory bulb of the rat was recorded in the form of an electrical signal from each micro electrode 16a of the measuring electrode portion 10. […] At the same time, the blood pressure and the heart rate of the rat were measured when cineole was sprayed on the rat. […] After the olfactory bulb of the rat had stabilized, cineole was sprayed into the test animal fixing device 32 together with air at an oxygen concentration 5% higher than normal air, and a response of the olfactory bulb of the rat obtained at that time was recorded in the form of an electrical signal from each micro electrode 16a of the measuring electrode portion 10.

rat = assay: Blood pressure and heart rate of the rat while the compound is sprayed; type: in vivo
From the text: The test animal fixing device 32 has a means for measuring physiological responses induced in an organism, such as the blood pressure, the heart rate, etc., of the test animal fixed therein. Measurement results obtained by the measuring means are supplied to the processing apparatus 36. Further, measurement results of the blood pressure, the heart rate, and the like, of the rat fixed in the test animal fixing device 32, which are obtained when the air containing the olfactory mucosa stimulating compound is sprayed from the atomizing nozzle 33, are supplied to the processing apparatus 36. The processing apparatus 36 determines the efficacy of the olfactory mucosa stimulating compound sprayed on the rat, based on the analyzed electrical signal pattern in the olfactory bulb and the measurement results of the blood pressure, the heart rate, and the like, of the rat. For example, if a decrease in the blood pressure of the rat is detected as a result of a stimulation of the olfactory mucosa by an olfactory mucosa stimulating compound, it is determined that the olfactory mucosa stimulating compound suppresses brain cells so as to induce a physiological response that lowers the blood pressure. Accordingly, the olfactory mucosa stimulating compound is identified as a compound effective in lowering the blood pressure. In this case, the electrical signal pattern obtained by the measuring electrode portion 10 is stored as data in the processing apparatus 36. After such an implantation operation of the measuring electrode portion 10, the rat was reared for three weeks under an environment which was cleaned with activated carbon so as to remove substances that produce aromas. Then, three weeks after the surgical operation, the rat was fixed in the test animal fixing device 32 of the screening apparatus 1 shown in FIG. 1. The terminal line 38, which extended from the body of the rat, was connected to the signal amplitude stimulating apparatus 34 outside the test animal fixing device 32. […] The response induced in the olfactory bulb of the rat was recorded in the form of an electrical signal from each micro electrode 16a of the measuring electrode portion 10. […] At the same time, the blood pressure and the heart rate of the rat were measured when cineole was sprayed on the rat. […] After the olfactory bulb of the rat had stabilized, cineole was sprayed into the test animal fixing device 32 together with air at an oxygen concentration 5% higher than normal air, and a response of the olfactory bulb of the rat obtained at that time was recorded in the form of an electrical signal from each micro electrode 16a of the measuring electrode portion 10.

[1] = cineole sprayed with air, FIG. 6
[2] = result stated for normal oxygen concentration

## CC12CCC(CC1)C(C)(C)O2 [cineole]
Olfactory mucosa
  stimulation of the olfactory mucosa (electrical signals of the olfactory bulb, 16 micro electrodes): stimulated the olfactory mucosa
rat; [1]
  blood pressure: increases in the blood pressure
  heart rate: increases
rat; [2]
  blood pressure, air at normal oxygen concentration versus air at oxygen concentration 5% higher than normal air: increased more greatly
  heart rate, air at normal oxygen concentration versus air at oxygen concentration 5% higher than normal air: increased more greatly

Reference: patent publication US6994671B2, “Apparatus and method for screening, olfactory mucosa stimulating compound found by the screening method, and therapeutic apparatus and electrode section for measurement” (Matsushita Electric Industrial Co., Ltd., priority 2000, dated 2006)
